Experimental data from paper PMC7721954, “Preclinical comparison of four [^18F, ^natGa]rhPSMA-7 isomers: influence of the stereoconfiguration on pharmacokinetics” (EJNMMI Research, 2020).

Experiments:
PSMA = target: T1, PSMA (Homo sapiens, UniProt Q04609); experiment: Competitive binding (IC50) on LNCaP cells vs ([125I]I-BA)KuE; settings: 1 h, 4 °C, n = 5-9, read-out: IC50 (binding affinity)
T1 construct: host or cells: LNCaP cells
Procedure: (§1) Competitive binding studies were determined on LNCaP cells (1.5 × 10^5 cells in 1 mL/well) after incubation at 4 °C for 1 h, using (((S)-1-carboxy-5-(4-([^125I]iodo)benzamido)pentyl)carbamoyl)-L-glutamic acid (([^125I]I-BA)KuE; 0.2 nM/well) as reference radioligand (n = 5–9). Internalization studies of the radiolabeled ligands (0.5 nM/well) were performed on LNCaP cells (1.25 × 10^5 cells in 1 mL/well) at 37 °C for 1 h and accompanied by ([^125I]I-BA)KuE (0.2 nM/well), as reference. Data were corrected for non-specific binding and normalized to the specific internalization observed for the reference (n = 3–6). A detailed description of the experimental procedures was previously published.

LNCaP cells = experiment: Internalization into LNCaP cells relative to ([125I]I-BA)KuE; assay type: cell-based; settings: 1 h, 37 °C, percentage of reference ligand ([125I]I-BA)KuE, n = 3-6
Procedure: as §1

[1] = tested on: LNCaP tumor-bearing male CB-17 SCID mice; experiment: Biodistribution 1 h p.i.; assay type: in vivo
Procedure: (§2) LNCaP tumor xenografts were established in 6–8 weeks old male CB-17 SCID mice as described previously.
(§3) 1–3 MBq (0.2 nmol) of the [^18F, ^natGa]rhPSMA inhibitors were injected into the tail vein of LNCaP tumor-bearing male CB-17 SCID mice that were sacrificed 1 h post injection (p.i.) (n = 4 for 7.1, n = 5 for 7.2, n = 4 for 7.3, n = 5 for 7.4 and n = 3 for 7). Selected organs were removed, weighed, and measured in a γ-counter. For competition studies, 8 mg/kg of 2-PMPA (2-(Phosphonomethyl)-pentandioic acid) were co-administered (n = 3).

LNCaP tumor-bearing mice = experiment: Differential uptake and excretion pattern of isomers after injection of the diastereomeric mixture (radio-HPLC); assay type: in vivo; settings: blood, liver, kidney and tumor, 30 min p.i., n = 4
Procedure: With the intention to identify even marginal differences in the in vivo behavior, all four [^18F, ^natGa]rhPSMA-7 isomers were co-evaluated in one single tumor-bearing mouse in order to quantify the differential uptake and excretion pattern of each isomer. For this purpose, the diastereomeric mixture [^18F, ^natGa]rhPSMA-7 was produced in high molar activity (AM) of 247–349 GBq/µmol (at end of synthesis) and the abundance of each isomer was determined by radio-HPLC. Mice (n = 4) were injected with [^18F, ^natGa]rhPSMA-7 (180–280 MBq, 0.9–1.0 nmol) and left under anesthesia. After 30 min p.i., they were sacrificed and urine, blood, liver, kidneys and tumor were collected and processed. Radioactivity was extracted from solid tissues by means of a Potter–Elvehjem tissue grinder (n = 1) or a ball mill (n = 3) and separated from the protein fraction by subsequent cartridge-based solid-phase extraction (SPE). Blood samples were diluted, centrifuged and the supernatant was purified by SPE (see supporting information). Urine and extracts from tissue samples were then analyzed by radio-HPLC to quantify the fraction of each isomer in each sample. Finally, the relative percentage difference between the abundance of each isomer in the injected diastereomeric mixture (values taken from the quality control) and the abundance of the respective isomer in each analyzed tissue or body fluid was calculated. […] PeakFit allows for automated nonlinear separation, analysis and quantification of HPLC elution profiles by deconvolution procedures that uses a Gaussian response function with a Fourier deconvolution/filtering algorithm (see Additional file 1: Fig. 7).
Extraction via the Potter-Elvehjem Tissue Grinder. Tumor and kidneys were separately homogenized in the tissue homogeniser with 1 mL of extraction buffer (850 μL 1 M HEPES pH 7.4, 100 μL 20 mM PMPA and 100 μL 1 M NaCl) for 30 min. The resulting homogenate was collected and centrifuged at 13000×g for 5 min. Subsequently, the supernatant was collected, centrifuged again (13000×g, 5 min) and loaded on a Strata X cartridge (33 μm Polymeric Reversed Phase 500 mg) preconditioned with 5 mL MeOH, followed by 5 mL H2O. After washing with 5 mL H2O, the cartridge was eluted with a 3:2 mixture (v/v) of MeCN in H2O supplemented with 1% TFA. For radio-HPLC analysis the eluates were diluted with water.
Extraction via the MM-400 Ball Mill. The samples (tumor, kidney, liver) were separately homogenized in a 2 mL tube together with 3 grinding balls (3 mm diameter) and 1 mL of extraction buffer (850 μL 1 M HEPES pH 7.4, 100 μL 20 mM PMPA and 100 μL 1 M NaCl) for 10 min at 30 Hz. The homogenate was centrifuged at 13 000×g for 5 min and the supernatant was collected. […]

[2] = tested on: LNCaP tumor-bearing male CB-17 SCID mice; experiment: Biodistribution 1 h p.i. with competition (co-injection of 2-PMPA); assay type: in vivo; settings: co-injected with 2-PMPA (8 mg/kg), n = 3
Procedure: as §2, §3

human serum albumin = target: T2, human serum albumin (Homo sapiens, UniProt P02768); experiment: Human serum albumin binding on Chiralpak HSA column; assay type: in vitro ADME
T2 construct: purchased
T2 sequence (P02768 25-609): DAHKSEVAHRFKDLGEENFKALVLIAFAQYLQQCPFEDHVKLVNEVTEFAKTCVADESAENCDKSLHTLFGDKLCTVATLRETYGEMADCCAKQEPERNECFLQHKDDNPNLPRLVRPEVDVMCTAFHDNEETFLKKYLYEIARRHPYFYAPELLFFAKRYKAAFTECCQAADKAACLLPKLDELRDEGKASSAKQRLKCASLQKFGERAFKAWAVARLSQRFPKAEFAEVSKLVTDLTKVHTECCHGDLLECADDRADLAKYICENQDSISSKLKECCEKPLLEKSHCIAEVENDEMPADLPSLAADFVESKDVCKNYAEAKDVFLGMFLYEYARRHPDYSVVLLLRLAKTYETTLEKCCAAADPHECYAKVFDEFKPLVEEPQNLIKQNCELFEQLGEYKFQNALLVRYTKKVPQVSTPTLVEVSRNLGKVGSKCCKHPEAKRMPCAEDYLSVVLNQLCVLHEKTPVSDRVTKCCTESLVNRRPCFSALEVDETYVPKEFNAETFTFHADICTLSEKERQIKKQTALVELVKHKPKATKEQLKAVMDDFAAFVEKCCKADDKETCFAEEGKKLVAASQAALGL
Procedure: Approximately 1 MBq of the ^18F-ligand was dissolved in 1 mL of a 1:1 mixture (v/v) of phosphate-buffered saline (PBS, pH 7.4) and n-octanol (n = 18–23). After vigorous mixing of the suspension for 3 min, the vial was centrifuged at 15,000 × g for 3 min and 100 μL aliquots of both layers were measured in a γ-counter. HSA binding of ^19F-^natGa-rhPSMA ligands was determined according to a previously published procedure.

T1 sequence (Q04609 whole entry): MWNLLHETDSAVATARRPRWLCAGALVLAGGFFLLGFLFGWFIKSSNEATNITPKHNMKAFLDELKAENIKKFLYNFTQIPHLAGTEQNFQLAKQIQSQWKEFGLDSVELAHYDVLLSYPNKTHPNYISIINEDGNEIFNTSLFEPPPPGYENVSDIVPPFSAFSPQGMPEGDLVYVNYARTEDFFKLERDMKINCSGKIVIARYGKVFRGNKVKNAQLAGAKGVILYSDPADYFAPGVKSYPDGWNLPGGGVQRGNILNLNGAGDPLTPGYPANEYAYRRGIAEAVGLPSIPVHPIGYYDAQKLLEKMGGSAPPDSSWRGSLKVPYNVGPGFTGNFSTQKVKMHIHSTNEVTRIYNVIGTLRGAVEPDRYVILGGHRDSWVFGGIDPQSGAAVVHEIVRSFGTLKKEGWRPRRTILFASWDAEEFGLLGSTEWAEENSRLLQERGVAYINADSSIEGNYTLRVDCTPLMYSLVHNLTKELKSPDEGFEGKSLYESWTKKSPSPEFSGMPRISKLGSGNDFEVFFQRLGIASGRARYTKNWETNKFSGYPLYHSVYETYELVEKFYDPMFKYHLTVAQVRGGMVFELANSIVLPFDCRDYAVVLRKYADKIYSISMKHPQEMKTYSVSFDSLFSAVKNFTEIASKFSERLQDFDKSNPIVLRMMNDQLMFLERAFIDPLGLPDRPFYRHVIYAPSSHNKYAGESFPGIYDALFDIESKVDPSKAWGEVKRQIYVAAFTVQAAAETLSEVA

IC50 (PSMA) [nM] | Biodistribution Adrenals [1] [% ID/g] | Biodistribution Blood [1] [% ID/g] | Biodistribution Bone [1] [% ID/g] | Biodistribution Heart [1] [% ID/g] | Biodistribution Intestine [1] [% ID/g] | Biodistribution Kidneys [1] [% ID/g] | Biodistribution Liver [1] [% ID/g] | Biodistribution Lung [1] [% ID/g] | Biodistribution Muscle [1] [% ID/g] | Biodistribution Pancreas [1] [% ID/g] | Biodistribution Spleen [1] [% ID/g] | Biodistribution Stomach [1] [% ID/g] | Biodistribution Tumor [1] [% ID/g] | Biodistribution Adrenals [2] [% ID/g] | Biodistribution Blood [2] [% ID/g] | Biodistribution Bone [2] [% ID/g] | Biodistribution Heart [2] [% ID/g] | Compound | Internalization (internalized activity) (LNCaP cells) | Abundance (enrichment) of the isomer in tissue compared to time point of injection (LNCaP tumor-bearing mice) | other results
– | 3.57 ± 2.38 | 1.15 ± 0.30 | 0.62 ± 0.30 | 0.71 ± 0.26 | 0.37 ± 0.09 | 153 ± 80.3 | 0.69 ± 0.20 | 1.59 ± 0.61 | 0.31 ± 0.08 | 0.50 ± 0.30 | 18.4 ± 9.77 | 0.25 ± 0.06 | 18.9 ± 3.27 | 0.03 ± 0.04 | 0.82 ± 0.17 | 1.0 ± 0.8 | 0.37 ± 0.05 | CC(C)(C)[Si]([18F])(c1ccc(C(=O)NC[C@H](NC(=O)CC[C@@H](C(=O)O)N2CCN(CC(=O)[O-])CCN(CC(=O)[O-])CCN(CC(=O)[O-])CC2)C(=O)N[C@H](CCCCNC(=O)CCC(=O)NCCC[C@@H](NC(=O)CC[C@H](NC(=O)N[C@@H](CCC(=O)O)C(=O)O)C(=O)O)C(=O)O)C(=O)O)cc1)C(C)(C)C.[Ga+3] [[^18F, ^natGa]rhPSMA-7.4] | 207 ± 4 % of reference | lowest enrichment in blood, liver and kidney, but also the lowest uptake by tumors | Biodistribution Intestine [2]: 0.36 ± 0.08 % ID/g; Biodistribution Kidneys [2]: 7.2 ± 2.4 % ID/g; Biodistribution Liver [2]: 0.48 ± 0.14 % ID/g; Biodistribution Lung [2]: 0.74 ± 0.14 % ID/g; Biodistribution Muscle [2]: 0.20 ± 0.05 % ID/g; Biodistribution Pancreas [2]: 0.18 ± 0.09 % ID/g; Biodistribution Spleen [2]: 0.28 ± 0.15 % ID/g; Biodistribution Stomach [2]: 0.20 ± 0.07 % ID/g; Biodistribution Tumor [2]: 0.99 ± 0.19 % ID/g; HSA-binding (human serum albumin): 97%
3.6 ± 0.7 | – | – | – | – | – | – | – | – | – | – | – | – | – | – | – | – | – | CC(C)(C)[Si](F)(c1ccc(C(=O)NC[C@H](NC(=O)CC[C@@H](C(=O)O)N2CCN(CC(=O)[O-])CCN(CC(=O)[O-])CCN(CC(=O)[O-])CC2)C(=O)N[C@H](CCCCNC(=O)CCC(=O)NCCC[C@@H](NC(=O)CC[C@H](NC(=O)N[C@@H](CCC(=O)O)C(=O)O)C(=O)O)C(=O)O)C(=O)O)cc1)C(C)(C)C.[Ga+3] [[^18F, ^natGa]rhPSMA-7.4] | – | – | –

The next lines start with the compound.

Compound | IC50 (PSMA) [nM] | Biodistribution Adrenals [1] [% ID/g] | Biodistribution Blood [1] [% ID/g] | Biodistribution Bone [1] [% ID/g] | Biodistribution Heart [1] [% ID/g] | Biodistribution Intestine [1] [% ID/g] | Biodistribution Kidneys [1] [% ID/g] | Biodistribution Liver [1] [% ID/g] | Biodistribution Lung [1] [% ID/g] | Biodistribution Muscle [1] [% ID/g] | Biodistribution Pancreas [1] [% ID/g] | Biodistribution Spleen [1] [% ID/g] | Biodistribution Stomach [1] [% ID/g] | Biodistribution Tumor [1] [% ID/g] | Biodistribution Adrenals [2] [% ID/g] | Biodistribution Blood [2] [% ID/g] | Biodistribution Bone [2] [% ID/g] | Biodistribution Heart [2] [% ID/g] | Internalization (internalized activity) (LNCaP cells) | Abundance (enrichment) of the isomer in tissue compared to time point of injection (LNCaP tumor-bearing mice) | other results
CC(C)(C)[Si](F)(c1ccc(C(=O)NC[C@@H](NC(=O)CC[C@H](C(=O)O)N2CCN(CC(=O)[O-])CCN(CC(=O)[O-])CCN(CC(=O)[O-])CC2)C(=O)N[C@H](CCCCNC(=O)CCC(=O)NCCC[C@@H](NC(=O)CC[C@H](NC(=O)N[C@@H](CCC(=O)O)C(=O)O)C(=O)O)C(=O)O)C(=O)O)cc1)C(C)(C)C.[Ga+3] [[^18F, ^natGa]rhPSMA-7.1] | 6.9 ± 1.4 | – | – | – | – | – | – | – | – | – | – | – | – | – | – | – | – | – | – | – | –
CC(C)(C)[Si](F)(c1ccc(C(=O)NC[C@@H](NC(=O)CC[C@@H](C(=O)O)N2CCN(CC(=O)[O-])CCN(CC(=O)[O-])CCN(CC(=O)[O-])CC2)C(=O)N[C@H](CCCCNC(=O)CCC(=O)NCCC[C@@H](NC(=O)CC[C@H](NC(=O)N[C@@H](CCC(=O)O)C(=O)O)C(=O)O)C(=O)O)C(=O)O)cc1)C(C)(C)C.[Ga+3] [[^18F, ^natGa]rhPSMA-7.3] | 4.4 ± 1.1 | – | – | – | – | – | – | – | – | – | – | – | – | – | – | – | – | – | – | – | –
CC(C)(C)[Si]([18F])(c1ccc(C(=O)NC[C@H](NC(=O)CC[C@H](C(=O)O)N2CCN(CC(=O)[O-])CCN(CC(=O)[O-])CCN(CC(=O)[O-])CC2)C(=O)N[C@H](CCCCNC(=O)CCC(=O)NCCC[C@@H](NC(=O)CC[C@H](NC(=O)N[C@@H](CCC(=O)O)C(=O)O)C(=O)O)C(=O)O)C(=O)O)cc1)C(C)(C)C.[Ga+3] [[^18F, ^natGa]rhPSMA-7.2] | – | 1.3 ± 0.8 | 0.56 ± 0.20 | 0.31 ± 0.24 | 0.32 ± 0.13 | 0.18 ± 0.07 | 87.6 ± 28.8 | 0.35 ± 0.08 | 0.89 ± 0.38 | 0.13 ± 0.07 | 0.21 ± 0.08 | 10.1 ± 6.3 | 0.19 ± 0.08 | 6.5 ± 2.3 | 0.07 ± 0.10 | 1.1 ± 0.31 | 0.57 ± 0.39 | 0.47 ± 0.09 | 192 ± 16 % of reference | lowest enrichment in blood, liver and kidney, but also the lowest uptake by tumors | Biodistribution Intestine [2]: 0.33 ± 0.10 % ID/g; Biodistribution Kidneys [2]: 10.9 ± 1.0 % ID/g; Biodistribution Liver [2]: 0.46 ± 0.07 % ID/g; Biodistribution Lung [2]: 1.1 ± 0.32 % ID/g; Biodistribution Muscle [2]: 0.09 ± 0.03 % ID/g; Biodistribution Pancreas [2]: 0.12 ± 0.05 % ID/g; Biodistribution Spleen [2]: 0.26 ± 0.07 % ID/g; Biodistribution Stomach [2]: 0.21 ± 0.06 % ID/g; Biodistribution Tumor [2]: 1.0 ± 0.13 % ID/g; HSA-binding (human serum albumin): 98%
CC(C)(C)[Si](F)(c1ccc(C(=O)NC[C@H](NC(=O)CC[C@H](C(=O)O)N2CCN(CC(=O)[O-])CCN(CC(=O)[O-])CCN(CC(=O)[O-])CC2)C(=O)N[C@H](CCCCNC(=O)CCC(=O)NCCC[C@@H](NC(=O)CC[C@H](NC(=O)N[C@@H](CCC(=O)O)C(=O)O)C(=O)O)C(=O)O)C(=O)O)cc1)C(C)(C)C.[Ga+3] [[^18F, ^natGa]rhPSMA-7.2] | 3.7 ± 1 | – | – | – | – | – | – | – | – | – | – | – | – | – | – | – | – | – | – | – | –
